Test results taken from article PMC10997755, “Discovery of a small-molecule inhibitor that traps Polθ on DNA and synergizes with PARP inhibitors” (Nature Communications, 2024).
In brackets after ≈: the same amount, converted by molar mass. Several values for one entry are separate records, joined by “and”; a condition that tells them apart may be missing. Equal values may be shown once. Entries after “also recorded” stand apart in the source; their conditions may differ.

Columns and labels:
[1] = target: T1, recombinant human full-length Polθ (Fl-Polθ) (Homo sapiens, UniProt O75417); experiment: Fl-Polθ DNA/DNA primer extension; assay type: biochemical; conditions: 0.15-12 µM, gel
T1 construct: recombinant human full-length Polθ (Fl-Polθ); made in house
T1 sequence (O75417 whole entry): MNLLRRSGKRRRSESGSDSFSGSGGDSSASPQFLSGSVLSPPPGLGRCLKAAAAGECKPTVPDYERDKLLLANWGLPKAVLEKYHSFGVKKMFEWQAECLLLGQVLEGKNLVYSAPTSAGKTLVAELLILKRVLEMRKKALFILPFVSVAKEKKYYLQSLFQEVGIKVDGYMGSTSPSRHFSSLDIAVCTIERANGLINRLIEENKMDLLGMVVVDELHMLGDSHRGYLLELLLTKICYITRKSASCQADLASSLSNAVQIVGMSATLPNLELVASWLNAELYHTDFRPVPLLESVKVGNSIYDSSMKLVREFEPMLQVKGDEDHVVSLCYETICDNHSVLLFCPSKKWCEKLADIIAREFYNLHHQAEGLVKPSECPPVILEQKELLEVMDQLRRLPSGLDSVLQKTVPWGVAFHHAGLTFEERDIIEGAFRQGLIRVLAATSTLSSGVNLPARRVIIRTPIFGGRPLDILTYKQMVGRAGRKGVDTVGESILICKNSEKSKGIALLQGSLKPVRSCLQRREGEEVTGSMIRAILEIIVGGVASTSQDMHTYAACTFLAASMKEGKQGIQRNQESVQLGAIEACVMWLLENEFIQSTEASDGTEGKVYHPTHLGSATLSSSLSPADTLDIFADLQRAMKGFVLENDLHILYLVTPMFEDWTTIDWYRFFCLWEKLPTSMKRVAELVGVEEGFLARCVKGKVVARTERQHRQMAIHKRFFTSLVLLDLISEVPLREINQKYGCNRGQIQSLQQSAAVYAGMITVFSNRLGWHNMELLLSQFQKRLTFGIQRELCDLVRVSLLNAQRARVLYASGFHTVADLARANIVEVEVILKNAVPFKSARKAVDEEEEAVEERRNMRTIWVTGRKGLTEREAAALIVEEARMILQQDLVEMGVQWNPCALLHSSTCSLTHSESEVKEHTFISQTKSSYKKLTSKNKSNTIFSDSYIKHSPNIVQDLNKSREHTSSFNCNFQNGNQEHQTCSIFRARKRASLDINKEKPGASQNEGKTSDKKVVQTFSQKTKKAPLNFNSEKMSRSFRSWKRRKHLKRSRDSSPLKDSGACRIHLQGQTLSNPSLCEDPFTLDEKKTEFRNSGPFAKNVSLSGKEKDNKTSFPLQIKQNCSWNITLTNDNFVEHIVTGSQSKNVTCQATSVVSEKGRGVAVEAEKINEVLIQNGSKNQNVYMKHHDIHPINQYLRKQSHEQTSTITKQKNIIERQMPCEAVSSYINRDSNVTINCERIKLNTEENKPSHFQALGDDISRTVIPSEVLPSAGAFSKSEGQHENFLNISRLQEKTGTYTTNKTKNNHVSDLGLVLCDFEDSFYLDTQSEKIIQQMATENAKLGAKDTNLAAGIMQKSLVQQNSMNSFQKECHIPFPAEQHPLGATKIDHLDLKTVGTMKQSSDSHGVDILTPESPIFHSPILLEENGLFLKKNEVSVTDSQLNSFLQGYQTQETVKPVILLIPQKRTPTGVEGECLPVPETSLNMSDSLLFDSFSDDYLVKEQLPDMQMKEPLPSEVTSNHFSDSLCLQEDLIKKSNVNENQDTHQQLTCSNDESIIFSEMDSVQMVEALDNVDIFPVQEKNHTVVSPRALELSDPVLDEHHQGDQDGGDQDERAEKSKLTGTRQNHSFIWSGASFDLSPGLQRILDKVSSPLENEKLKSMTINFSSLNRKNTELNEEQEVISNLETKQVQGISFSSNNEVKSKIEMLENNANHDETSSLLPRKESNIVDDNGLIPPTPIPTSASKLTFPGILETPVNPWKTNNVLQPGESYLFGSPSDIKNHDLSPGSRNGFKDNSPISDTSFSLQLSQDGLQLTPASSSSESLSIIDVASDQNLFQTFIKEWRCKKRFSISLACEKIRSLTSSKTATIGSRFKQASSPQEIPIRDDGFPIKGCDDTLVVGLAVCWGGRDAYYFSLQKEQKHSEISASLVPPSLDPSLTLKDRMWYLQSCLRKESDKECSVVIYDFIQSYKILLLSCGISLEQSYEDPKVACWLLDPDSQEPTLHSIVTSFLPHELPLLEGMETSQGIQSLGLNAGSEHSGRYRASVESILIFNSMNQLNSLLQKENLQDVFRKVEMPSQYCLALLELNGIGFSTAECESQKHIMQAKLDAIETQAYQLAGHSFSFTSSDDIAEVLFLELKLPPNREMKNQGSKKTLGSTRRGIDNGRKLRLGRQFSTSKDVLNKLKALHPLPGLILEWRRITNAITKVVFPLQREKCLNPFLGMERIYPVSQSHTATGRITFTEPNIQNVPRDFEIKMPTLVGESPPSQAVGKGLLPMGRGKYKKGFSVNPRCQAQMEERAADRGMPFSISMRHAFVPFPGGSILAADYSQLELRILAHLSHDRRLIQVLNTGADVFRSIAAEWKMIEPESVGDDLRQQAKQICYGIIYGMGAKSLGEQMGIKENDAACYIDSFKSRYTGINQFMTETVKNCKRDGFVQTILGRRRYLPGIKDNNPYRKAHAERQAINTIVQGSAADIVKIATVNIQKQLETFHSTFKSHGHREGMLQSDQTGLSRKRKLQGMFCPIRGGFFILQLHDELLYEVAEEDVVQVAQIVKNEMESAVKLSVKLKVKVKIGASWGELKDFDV

[2] = Solubility (2% DMSO/PBS); assay type: physicochemical; conditions: aqueous buffer, kinetic from dmso stock
[3] = target: T2, Polθ-pol on DNA/DNA (Homo sapiens, UniProt O75417); experiment: Relative rate of ddCMP addition on DNA/DNA; assay type: biochemical; conditions: for Average % Extension (Single nt) / % Extension (Single nt): DNA template, 2uM RTX-161; for Average % Extension (Single nt): average of 3 trials; for % Extension (Single nt): single trials 1-3
T2 construct: purified recombinant human Polθ-pol (comprising amino acid residues 1792–2590); made in house
T2 sequence (O75417 1792-2590): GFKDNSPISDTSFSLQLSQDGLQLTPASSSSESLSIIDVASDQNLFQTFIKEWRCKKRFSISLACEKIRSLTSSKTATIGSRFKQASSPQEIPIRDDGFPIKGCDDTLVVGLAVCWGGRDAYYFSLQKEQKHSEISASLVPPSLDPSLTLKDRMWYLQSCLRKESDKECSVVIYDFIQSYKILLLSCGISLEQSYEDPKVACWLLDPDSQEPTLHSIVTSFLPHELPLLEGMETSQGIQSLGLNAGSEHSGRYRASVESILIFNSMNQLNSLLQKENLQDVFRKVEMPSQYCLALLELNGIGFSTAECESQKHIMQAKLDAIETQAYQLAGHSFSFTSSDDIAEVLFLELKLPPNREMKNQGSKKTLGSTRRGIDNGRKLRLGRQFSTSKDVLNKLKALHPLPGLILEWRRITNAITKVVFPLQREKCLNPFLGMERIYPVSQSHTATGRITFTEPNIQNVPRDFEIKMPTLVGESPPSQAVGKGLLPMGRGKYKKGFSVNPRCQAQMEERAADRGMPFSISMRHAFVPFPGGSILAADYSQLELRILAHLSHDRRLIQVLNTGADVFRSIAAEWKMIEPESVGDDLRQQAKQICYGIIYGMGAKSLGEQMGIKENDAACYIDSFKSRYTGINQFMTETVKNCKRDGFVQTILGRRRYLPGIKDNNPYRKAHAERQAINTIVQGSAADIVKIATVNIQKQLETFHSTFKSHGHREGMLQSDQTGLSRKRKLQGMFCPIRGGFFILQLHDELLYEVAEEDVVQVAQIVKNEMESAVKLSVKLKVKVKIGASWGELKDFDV
Method: Relative rate of Polθ-pol dAMP addition. The relative rates of dAMP incorporation by Polq-pol in the presence of DMSO or MC160385 with various concentrations of dATP were measured using the following primer extension assay in vitro. 2 nM or Polθ-pol was incubated with 5’ ^32P-γ-ATP labeled 100 nM primer-template (RP469D/RP486) in 1X buffer (25 mM TrisHCl pH 7.8, 0.01% NP40, 10% glycerol, 1 mM DTT, 10 mM MgCl2, 0.1 mg/ml BSA) at room temp. 2.5% DMSO, 7.5 nM or 12 nM of MC160385 was added. Reactions were than initiated by the addition of 20, 50, 100, 200, or 300 μM dATP at room temp. Aliquots of the reactions were removed and terminated by the addition of 50 mM EDTA at 3, 3.5, 4 and 5 min after the reaction was initiated. Radio-labeled DNA was then resolved via denaturing 20% PAGE and visualized by Typhoon PhosphorImager (GE Amersham). Rates of dAMP incorporation were calculated from % extension of the prime-template which was determined using ImageJ software. Relative rate of ddCMP addition on DNA/DNA and DNA/RNA. 25 nM nucleic acid DNA/DNA or DNA/RNA primer-template (RP559/RP702 or RP559/RP702R) was mixed with 1X reaction buffer (20 mM TrisHCl pH 7.5, 0.01% NP-40, 0.5 mM DTT, 10% glycerol, 0.1 mg/ml BSA, 10 mM MgCl2) in the presence of 250 μM ddCTP at room temp. Next, 2 μM RTx-161 or 2.5% DMSO was added. Reactions were initiated by the addition of 10 nM Polθ-pol. Reaction aliquots were removed and terminated by the addition of 50 mM EDTA at the indicated time points. Radio-labeled DNA was then resolved via denaturing 20% PAGE and visualized by Typhoon PhosphorImager. Percent primer extension by single ddCMP addition at each time point was calculated from % extension of the prime-template which was determined using ImageJ software.

[4] = Clonogenic assay, OLA with or without RTX-161 (Fig. 2 a; cell line not given); assay type: cell-based; conditions: OLA 0, single experiments, relative to vehicle
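Wherever percent suvival is given: colony counts relative to DMSO-treated cells set as 100%.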

Row | SMILES | inhibition of Fl-Polθ DNA synthesis activity [1] | solubility [2] [µM] | inhibition of single nucleotide incorporation on DNA/DNA ([3]; 2 μM RTx-161, closed conformation) | Average % Extension (Single nt) ([3]; Time 0) [%] | % Extension (Single nt) ([3]; Time 0) [%] | Average % Extension (Single nt) ([3]; Time 0.5) [%] | % Extension (Single nt) ([3]; Time 0.5) | Average % Extension (Single nt) ([3]; Time 1) [%] | % Extension (Single nt) ([3]; Time 1) | Average % Extension (Single nt) ([3]; Time 2) [%] | % Extension (Single nt) ([3]; Time 2) | percent suvival ([4]; RTX-161 0.5 micro M) | percent suvival ([4]; RTX-161 1 micro M) | percent suvival ([4]; RTX-161 2 micro M)
1 | CN(C(=O)Oc1ccc(C(F)(F)F)cc1C(F)(F)F)c1ccc(F)cc1 [MC160385] | inhibits; also recorded: inhibition | 56 (≈ 21.3 µg/mL) |  |  |  |  |  |  |  |  |  |  |  | 
2 | CN(C(=O)Oc1c(N2CCN(CCO)C2=O)cc(C(F)(F)F)cc1C(F)(F)F)c1ccc(F)cc1 [RTx-161] |  |  | significant inhibition | 0.00 | 0.00 | 11.29 | 12.34% and 11.73% and 9.81% | 18.42 | 20.67% and 19.99% and 14.59% | 25.83 | 27.74% and 29.45% and 20.29% | 63.3333% and 80.7018% and 61.1842% | 55.8333% and 71.9298% and 46.0526% | 43.3333% and 23.3918% and 22.3684%
